Values after ≈ are worked out from the molar mass of the structure shown.

The conditions of this series: buffer; pH 7.4; 200.0 µM.
What is called solubility (kinetic) is solubility judged after dilution from a stock solution rather than from solid. Regarding `CC(=O)C1=C(Nc2ccccc2)CC(C)(O)C(C(C)=O)C1c1ccccc1` (stereo unspecified), the solubility (kinetic) is 4.1 µg/mL (≈ 11.3 µM).
`CCCC(=O)Oc1ccc(-c2nccc(C(OC)OC)n2)cc1`: the kinetic solubility turned out to be 46.1 µg/mL (≈ 146 µM).
Compound `CC(C)(C)OC(=O)N1CCCN(C(=O)Nc2cccc(Cl)c2)CC1` returned a solubility (kinetic) of 51.4 µg/mL (≈ 145 µM).
`O=C(CCC(=O)N1CCN(S(=O)(=O)c2ccc([N+](=O)[O-])cc2)CC1)N1CCOCC1` registered a kinetic solubility of more than 66.1 µg/mL.
The same measure for `CN1CCN(S(=O)(=O)c2ccc(Cl)s2)CC1`: more than 42.1 µg/mL; for `O=C(CN1CCCC1)NCC(=O)Nc1ccc(F)cc1`: more than 41.9 µg/mL; for `CC(C)(C)c1csc(NC(=O)CCc2ccccc2)n1`: 2.1 µg/mL (≈ 7.28 µM).
For `COc1ccc(OCCC(=O)Nc2ccccc2)cc1` the value was more than 40.7 µg/mL; for `O=C(CSCc1ccccc1)NCCc1ccc(F)cc1`, 41.5 µg/mL (≈ 137 µM).
For `O=C(CCn1c(=S)[nH]c2ccccc2c1=O)N1CCCCC1` the value was 9.1 µg/mL (≈ 28.7 µM); for `COc1cccc(CNc2nccs2)c1O`, more than 35.4 µg/mL; for `CC1(C)Cc2c(sc3c2c(N)nc(=S)n3Cc2ccccc2)CO1`, 2.3 µg/mL (≈ 6.43 µM).
Turning to `CSc1nsc(SCC(=O)Nc2ccc(O)c(C(=O)O)c2)n1`, the solubility (kinetic) was more than 53.6 µg/mL.
For `CCc1cccc(C)c1NC(=O)C1CC(=O)N(C2CCCC2)C1` (stereo unspecified) the value was more than 47.2 µg/mL; for `CCc1cc2c(SCc3ccc(C(=O)OC)o3)ncnc2s1`, 1.8 µg/mL (≈ 5.38 µM); for `C=CCNc1nc(C(=O)OCC(=O)c2ccccc2)cs1`, 4.5 µg/mL (≈ 14.9 µM).
As to `CN1CCC(NC(=S)NC2CC2)CC1`, the kinetic solubility is more than 32 µg/mL.
The same measure for `COc1ccc(Cl)cc1NC(=O)CSc1cccc[n+]1[O-]`: more than 48.7 µg/mL.
Turning to `O=C(CCCOc1ccc(Cl)cc1)NC1CCCCC1`, the kinetic solubility stood at 1.9 µg/mL (≈ 6.42 µM).
In turn, `CN1CCC(CO)(Cc2ccccc2)CC1` showed a solubility (kinetic) of 28.6 µg/mL (≈ 130 µM).
The same measure for `COc1cc2ccccc2cc1C(=O)Nc1ccc2oc(=O)ccc2c1`: less than 0.7 µg/mL; for `COc1ccc(CSc2nc(C)[nH]c2[N+](=O)[O-])cc1[N+](=O)[O-]`: 3.2 µg/mL (≈ 9.87 µM).
The same measure for `O=C1CC(Sc2ccc(Cl)cc2)C(=O)N1c1ccc2c(c1)OCCO2` (stereo unspecified): 13 µg/mL (≈ 34.6 µM); for `COc1ccccc1OCCCC(=O)Nc1nccs1`: 23.4 µg/mL (≈ 80 µM); for `CC1=NOC(=O)/C1=C/c1ccc2c(c1)OCO2`: 25.1 µg/mL (≈ 109 µM).
Regarding `CC(=O)N1CCN(c2ccc(NC(=O)c3ccco3)cc2)CC1`, the kinetic solubility is more than 47 µg/mL.
As to `CC1CCN(C(=O)CC(NC(N)=O)c2ccccc2Cl)CC1` (stereo unspecified), the kinetic solubility is 44.2 µg/mL (≈ 136 µM).
As for `COc1ccc(CNC(=O)C2(CC(=O)NC(C)(C)C)CCCC2)cc1`, the kinetic solubility was more than 52 µg/mL.
In turn, `COc1ccccc1CNC(=O)c1cc(-c2cccnc2)nc2ccccc12` came in with a solubility (kinetic) of 0.7 µg/mL (≈ 1.89 µM).
For `CN(C(=O)c1ccccc1)C1c2c(ccc3ccccc23)OCC1CO` (stereo unspecified) the value was less than 0.7 µg/mL.
For `O=C(Nc1ccccc1)C1CCCCN1S(=O)(=O)c1ccccc1` (stereo unspecified) the value was more than 51.7 µg/mL; for `O=C(O)Cc1c[nH]c2ccc(O)cc12`, more than 28.7 µg/mL; for `N#C/C(=C(/O)CO/N=C/c1ccccc1Cl)c1nc2ccccc2[nH]1`, less than 0.2 µg/mL.
The same measure for `CC1CC(C)CN(C(=O)CCNC(=O)c2ccccc2Cl)C1` (stereo unspecified): 47.7 µg/mL (≈ 148 µM); for `Fc1ccc2[nH]c3c(N4CCc5ccccc5C4)ncnc3c2c1`: 1.2 µg/mL (≈ 3.77 µM); for `COc1ccccc1OCCNC(=O)CCS(=O)(=O)c1ccccc1`: more than 54.5 µg/mL.
Compound `C[C@H](NC(=O)[C@@H]1Cc2ccccc2CN1)C(=O)NC1CCCC1` returned a kinetic solubility of more than 47.3 µg/mL.
On to `NC(=O)CNC(=O)c1cccc(Cl)c1`, for which the solubility (kinetic) is more than 31.9 µg/mL.
Turning to `O=[N+]([O-])c1ccc(N2CCN(c3ccccn3)CC2)c(Cl)c1`, the kinetic solubility worked out at 0.8 µg/mL (≈ 2.51 µM).
`COc1ccc(NCC(=O)Nc2cccc(C(F)(F)F)c2)cc1S(=O)(=O)N1CCOCC1` showed a solubility (kinetic) of 3.4 µg/mL (≈ 7.18 µM).
As to `COc1ccc(C(=O)O/N=C(/C(N)=O)P(=O)(OC(C)C)OC(C)C)cc1`, the solubility (kinetic) came out at 49.1 µg/mL (≈ 127 µM).
For `COC(=O)/C(C#N)=C/c1c(Oc2cc(C)cc(C)c2)nc2ccccn2c1=O`, the solubility (kinetic) came out at 1.7 µg/mL (≈ 4.53 µM).
For `C[C@@H](C(=O)NC1CCCC1)N1C(=O)N2CCc3c([nH]c4ccccc34)[C@@]2(C)C1=O` the value was 48.7 µg/mL (≈ 123 µM); for `COCCSc1nc(N)c2c3c(sc2n1)CN(C)CC3`, more than 46.6 µg/mL; for `C=CCn1c(O)c(/C=C2/C=c3ccccc3=N2)c(=O)[nH]c1=S`, 1.2 µg/mL (≈ 3.85 µM).
For `CN(CCO)c1nc(N)c2c(N)nc3c(c2c1C#N)CC(=O)N3C1CCCC1` the value was 10.7 µg/mL (≈ 28.1 µM); for `Cc1cc(C)cc(OCC(=O)Nc2ccc3c(c2)OCCO3)c1`, 2 µg/mL (≈ 6.38 µM); for `CCOC(=O)c1ccc(NC(=O)Nc2ccon2)cc1`, 6 µg/mL (≈ 21.8 µM).
The same measure for `CC(=O)c1cccc(NC(=O)N2CCOCC2)c1`: more than 37.2 µg/mL.
The compound `CCc1ccc(OCC2NCCc3cc(OC)c(OC)cc32)cc1` (stereo unspecified) showed a solubility (kinetic) of more than 49.1 µg/mL.
With `Cn1ccnc1C(OC(=O)c1ccccc1)C(F)(F)F` (stereo unspecified), the solubility (kinetic) was more than 42.6 µg/mL.

The values above are taken from PubChem BioAssay AID1996.
